According to patent publication US5126373A, “Composition for parenteral and oral nutrition” (priority 1987, dated 1992):

Experiments:
[1] = Preliminary results with 1,3-pentanediol and its esters; details: liver
[2] = RS-butanediol concentration in blood of pigs; format: in vivo, pig
Source text: (§1) The pigs were given equicaloric amount of either:

[3] = test system: ethanol withdrawal syndrome; details: rats; cited from earlier work
[4] = Blood glucose levels in unanesthetized young pigs; format: in vivo, pig; details: intravenous infusion 3 h or intragastric bolus
Source text: as §1

[5] = test system: ketone bodies (R-3-hydroxybutyrate+S-3-hydroxybutyrate+acetoacetate); experiment: Total ketone body concentrations in pigs; format: in vivo, pig
Experimental: as §1
The total concentration of physiological and unphysiological ketone bodies (R-3-hydroxybutyrate+S-3-hydroxybutyrate+acetoacetate) never exceeded 0.8 mM in the animal receiving RS-butanediol by the continuous intravenous route. […] Therefore, there was no marked acidosis in any of the groups.

[6] = test system: mitochondrial [NADH]/[NAD^+ ]; experiment: Redox parameters in blood of pigs; format: in vivo, pig; details: reflects the mitochondrial [NADH]/[NAD^+ ]
Source text: as §1

[7] = Noted metabolism of esters compared with butanediol alone; format: in vivo; details: compared with physiological oxido-reduction ratio
[8] = Volume of distribution of butanediol; format: in vivo
Source text: In other experiments, the volume of distribution of butanediol is equal to 2/3 of the body wt, i.e. total body water.

[9] = cited from earlier work
alloxan-diabetic rats = details: cited from earlier work
mammalian cells = details: cited from earlier work
[NADH]/[NAD^+ ] = inhibition of gluconeogenesis and alcoholic hypoglycemia; cited from earlier work

Question: With `CCC(O)CCO` (racemic) [RS-1,3-pentanediol] as the compound, how does the “gluconeogenic and ketogenic substrate” value [1] read?
Answer: Its value is “is a gluconeogenic and a ketogenic substrate”.

Question: For `CC(O)CCO` (racemic) [RS-butanediol, 1,3-butanediol], which “linear decrease of butanediol concentration in blood, time” value ([2]; after intragastric bolus) is on record?
Answer: The value was 4 h.

Question: And the concentration at 3 h ([2]; pig, blood, constant intravenous infusion for 3 h, 25% of hourly caloric requirement, read-out: RS-butanediol (free butanediol) concentration)?
Answer: The concentration at 3 h was 600 µM.

Question: And the Cmax ([2]; pig, blood, intragastric bolus, 15% of daily caloric requirements, read-out: concentration of butanediol in the blood, peak)?
Answer: The Cmax was 25000 µM.

Question: And the “effect on ethanol withdrawal syndrome” value [3]?
Answer: The value was “alleviates the ethanol withdrawal syndrome in rats”.

Question: What about the “Glucose levels / hypoglycemic effect” value [4] of the same compound?
Answer: Its value is “do not exert a hypoglycemic effect”.

Question: What about the “total concentration of ketone bodies” value ([5]; continuous intravenous infusion) of the same compound?
Answer: The value was no more than 0.8 mM.

Question: What about the “total ketone body concentration” value ([5]; intragastric bolus) of the same compound?
Answer: Its value is “about 1.5 mM”.

Question: What about the “[R-3-hydroxybutyrate]/[acetoacetate] ratio” value [6] of the same compound?
Answer: Its value is “increased”.

Question: And the “3-hydroxybutyrate and acetoacetate ratio after metabolism in the liver” value [7]?
Answer: Its value is “more reduced than physiological”.

Question: What about the osmotic effect ([8]; butanediol liberated in blood from plasma esterases) of the same compound?
Answer: Its osmotic effect is “does not exert any osmotic effect”.

Question: What about the “rate of distribution into total body water” value ([8]; compared with a tracer of water) of the same compound?
Answer: Its value is “at the same rate as a tracer of water”.

Question: And the volume of distribution ([8]; i.e. total body water)?
Answer: Its volume of distribution is 2/3.

Question: And the adverse effect ([9]; diet containing 5%, humans)?
Answer: The adverse effect was “no adverse effect”.

Question: And the nitrogen sparing ([9]; diet containing 5%, humans)?
Answer: Its nitrogen sparing is “nitrogen was spared”.

Question: And the “metabolism in the liver” value ([9]; via alcohol and aldehyde dehydrogenase)?
Answer: The value was “metabolised in the liver to DL-3-hydroxybutyrate”.

Question: Which blood glucose level (alloxan-diabetic rats; alloxan-diabetic rats) does the source give for `C[C@H](O)CCO` [L-1,3-butanediol] here?
Answer: Its blood glucose level is “useful in reducing the blood glucose level”.

Question: With `C[C@H](O)CC(=O)O` [L-β-hydroxybutyrate] as the compound, how does the “use by mammalian cells” value (mammalian cells) read?
Answer: Its value is “very well used by mammalian cells”.

Question: What about the antidiabetic properties (alloxan-diabetic rats; test not stated) of the same compound?
Answer: Its antidiabetic properties is “has demonstrated interesting antidiabetic properties”.

Question: Which redox shift ([NADH]/[NAD^+ ]) does the source give for `CCO` [ethanol] here?
Answer: Its redox shift is “an increase in [NADH]/[NAD^+ ]”.
